# Reference: ChEMBL document CHEMBL3885861, “Open TG-GATES”
# Species: Rattus norvegicus
# Assay: Open TG-GATES - Regimen: Single
# Format: toxicity, organism-based, Sprague-Dawley
# Design: regimen Single, gender Male, age 6 weeks
# Conditions: in vivo, po, 0 mg/kg, route gavage, dose level Control; for APTT / Bas / Eos / Fbg / Hb / Ht / Lym / MCH / MCHC / MCV / Mono / Neu / PT / Plat / RBC / Ret / WBC: tissue Blood; for ALP / ALT / AST / BUN / CRE / DBIL / GLC / IP / K / Na / PL / RALB / TBIL / TC / TG / TP / gamma-GTP: tissue Plasma
smiles,measurement,setting,value
NS(=O)(=O)c1cc(C(=O)O)c(NCc2ccco2)cc1Cl [FUROSEMIDE],TERMINAL_BW,3 h,205.5 g
same,APTT,3 h,15.8 s
same,Bas,3 h,0%
same,Eos,3 h,0.8%
same,Fbg,3 h,270 mg/dL
same,Hb,3 h,13.2 g/dL
same,Ht,3 h,39.9%
same,Lym,3 h,78.2%
same,MCH,3 h,21.5 pg
same,MCHC,3 h,33.2%
same,MCV,3 h,64.8 fL
same,Mono,3 h,2.8%
same,Neu,3 h,17.2%
same,PT,3 h,15.6 s
same,Plat,3 h,115.8 x10_4/uL
same,RBC,3 h,615.6 x10_4/ul
same,Ret,3 h,7.3%
same,WBC,3 h,70.5 x10_2/uL
same,ALP,3 h,1448.8 IU/L
same,ALT,3 h,40.4 IU/L
same,AST,3 h,76.2 IU/L
same,BUN,3 h,10.2 mg/dL
same,CRE,3 h,0.2 mg/dL
same,DBIL,3 h,0.01 mg/dL
same,GLC,3 h,172.8 mg/dL
same,IP,3 h,9 mg/dL
same,K,3 h,4 meq/L
same,Na,3 h,142.4 meq/L
same,PL,3 h,137.6 mg/dL
same,RALB,3 h,2.5 g/dL
same,TBIL,3 h,0.058 mg/dL
same,TC,3 h,72.2 mg/dL
same,TG,3 h,61.6 mg/dL
same,TP,3 h,5.4 g/dL
same,gamma-GTP,3 h,0.6 IU/L
same,TERMINAL_BW,6 h,207.5 g
same,APTT,6 h,16.5 s
same,Bas,6 h,0%
same,Eos,6 h,1.2%
same,Fbg,6 h,313.6 mg/dL
same,Hb,6 h,13.1 g/dL
same,Ht,6 h,39.4%
same,Lym,6 h,75.8%
same,MCH,6 h,21.2 pg
same,MCHC,6 h,33.1%
same,MCV,6 h,63.9 fL
same,Mono,6 h,2.8%
same,Neu,6 h,19.4%
same,PT,6 h,15.3 s
same,Plat,6 h,122.5 x10_4/uL
same,RBC,6 h,617.2 x10_4/ul
same,Ret,6 h,8%
same,WBC,6 h,72.8 x10_2/uL
same,ALP,6 h,1332.6 IU/L
same,ALT,6 h,39 IU/L
same,AST,6 h,70.6 IU/L
same,BUN,6 h,11 mg/dL
same,CRE,6 h,0.2 mg/dL
same,DBIL,6 h,0.012 mg/dL
same,GLC,6 h,173.8 mg/dL
same,IP,6 h,9.7 mg/dL
same,K,6 h,3.9 meq/L
same,Na,6 h,142.2 meq/L
same,PL,6 h,143.2 mg/dL
same,RALB,6 h,2.6 g/dL
same,TBIL,6 h,0.062 mg/dL
same,TC,6 h,80.4 mg/dL
same,TG,6 h,48.8 mg/dL
same,TP,6 h,5.5 g/dL
same,gamma-GTP,6 h,0.8 IU/L
same,TERMINAL_BW,9 h,206.6 g
same,APTT,9 h,19.4 s
same,Bas,9 h,0%
same,Eos,9 h,0.8%
same,Fbg,9 h,294.4 mg/dL
same,Hb,9 h,13 g/dL
same,Ht,9 h,39%
same,Lym,9 h,79.6%
same,MCH,9 h,20.7 pg
same,MCHC,9 h,33.2%
same,MCV,9 h,62.4 fL
same,Mono,9 h,2.2%
same,Neu,9 h,17%
same,PT,9 h,15.3 s
same,Plat,9 h,108.3 x10_4/uL
same,RBC,9 h,625.6 x10_4/ul
same,Ret,9 h,7.8%
same,WBC,9 h,70.5 x10_2/uL
same,ALP,9 h,1206 IU/L
same,ALT,9 h,40.8 IU/L
same,AST,9 h,68.2 IU/L
same,BUN,9 h,9 mg/dL
same,CRE,9 h,0.2 mg/dL
same,DBIL,9 h,0.01 mg/dL
same,GLC,9 h,182.8 mg/dL
same,IP,9 h,10.2 mg/dL
same,K,9 h,4 meq/L
same,Na,9 h,144.2 meq/L
same,PL,9 h,142 mg/dL
same,RALB,9 h,2.6 g/dL
same,TBIL,9 h,0.066 mg/dL
same,TC,9 h,79 mg/dL
same,TG,9 h,35.8 mg/dL
same,TP,9 h,5.6 g/dL
same,gamma-GTP,9 h,0.8 IU/L
same,TERMINAL_BW,24 h,222.4 g
same,APTT,24 h,16.2 s
same,Bas,24 h,0%
same,Eos,24 h,1%
same,Fbg,24 h,270.8 mg/dL
same,Hb,24 h,13.1 g/dL
same,Ht,24 h,39.3%
same,Lym,24 h,74.2%
same,MCH,24 h,21.3 pg
same,MCHC,24 h,33.3%
same,MCV,24 h,64.1 fL
same,Mono,24 h,3.2%
same,Neu,24 h,20.6%
same,PT,24 h,15.9 s
same,Plat,24 h,116.4 x10_4/uL
same,RBC,24 h,613.6 x10_4/ul
same,Ret,24 h,7.6%
same,WBC,24 h,104.1 x10_2/uL
same,ALP,24 h,1714.2 IU/L
same,ALT,24 h,47.4 IU/L
same,AST,24 h,73.4 IU/L
same,BUN,24 h,15.4 mg/dL
same,CRE,24 h,0.2 mg/dL
same,DBIL,24 h,0.014 mg/dL
same,GLC,24 h,182.4 mg/dL
same,IP,24 h,8.4 mg/dL
same,K,24 h,4.2 meq/L
same,Na,24 h,141.6 meq/L
same,PL,24 h,156 mg/dL
same,RALB,24 h,2.6 g/dL
same,TBIL,24 h,0.052 mg/dL
same,TC,24 h,81.6 mg/dL
same,TG,24 h,72.8 mg/dL
same,TP,24 h,5.7 g/dL
same,gamma-GTP,24 h,0.8 IU/L
